US12264185B2, “Stabilized BCL9 peptides for treatment of aberrant Wnt signaling” (WntRx Pharmaceuticals Inc., priority 2015, dated 2025)

Key:
[1] = tested on: HCT116 cells; format: cell-based
Experimental: The additional polypeptides were tested in a CellTiterGlo luminescent cell viability assay (Promega). ICG001 was used as a positive control in this assay.

[2] = Preliminary stability study of salt form; format: physicochemical; conditions: trifluroacetic acid salt form, 2-8° C. and room temperature, at least one month
[3] = tested on: NCI-H1299-Luc cells; assay: NCI-H1299-Luc orthotopic model in balb/c nude mice; format: in vivo; conditions: 15 mg/kg i.v. daily, 10 days
Description: Orthotopic mouse models are useful to visualize the effect of an anti-tumor compound on a tumor implanted in a mouse and to assess the effect of the compound on tumor metastasis. An orthotropic model utilizing the NCI-H1299-Luc cell line (non-small-cell lung carcinoma cell line expressing luciferase) was selected for this experiment. Upon uptake of luciferin substrate, these cells are capable of producing bioluminescence. Proliferation of the NCI-H1299 cell line is dependent on Pygopus (Pygo) 2/β-catenin transcription activity, in which TCF-1 transcription factors (BCL9, β-cat and Pygo) form a transcription complex to initiate transcription.
The mice were about 5 weeks of age. NCI-H1299-Luc cells (5×10^6) in 50 μL in PBS were injected into each mouse lung with a syringe.
The bioluminescence intensity (total Flux [p/s]) of each mouse was measured periodically throughout the study according to manufacturer protocol (Xenogen ivis imaging system, PerkinElmer).

[4] = in vivo; conditions: female, balb/c, mouse, ip

CC[C@H](C)[C@@H]1NC(=O)[C@@](C)(NC(=O)[C@H](CCCNC(=N)N)NC(=O)[C@H](CC(C)C)NC(=O)[C@@H](NC(=O)[C@H](CCC(N)=O)NC(=O)[C@H](CC(C)C)NC(C)=O)[C@@H](C)O)CCCC=CCCC[C@@](C)(C(=O)N[C@@H](CC(C)C)C(=O)N[C@@H](Cc2ccc3ccccc3c2)C(N)=O)NC(=O)[C@H](CCCNC(=N)N)NC(=O)[C@H](CCC(N)=O)NC1=O [WX-024, LQTLRXaa1IQRXaa2L]
IC50 [1]: 1920 nM
inhibition of cell growth ([1]; HCT116 cells, CellTiterGlo): particularly effective
stability [2]: stable
tumor formation and growth (bioluminescence total flux) [3]: almost completely blocked tumor formation and growth in vivo
AUC(0-inf) ([4]; 10 mg/kg): 41.1 µg·h/mL
AUC(0-t) ([4]; 10 mg/kg): 37.8 µg·h/mL
Tmax ([4]; 10 mg/kg): 2 h
AUC(0-inf) ([4]; 15 mg/kg): 109 µg·h/mL
AUC(0-t) ([4]; 15 mg/kg): 107 µg·h/mL
Cmax ([4]; 15 mg/kg): 8750 ng/mL
Tmax ([4]; 15 mg/kg): 3.33 h
AUC(0-inf) ([4]; 20 mg/kg): 161 µg·h/mL
AUC(0-t) ([4]; 20 mg/kg): 160 µg·h/mL
Cmax ([4]; 20 mg/kg): 13700 ng/mL
Tmax ([4]; 20 mg/kg): 4 h
